In US9061966B2, “Cyclopropylamine inhibitors of oxidases” (ORYZON GENOMICS S.A., priority 2010, dated 2015):
Counter-ions that a name gives are not always drawn.

What was measured:
Format in all cases: biochemical
[1] = target: T1, Human recombinant monoamine oxidase MAO-B (Homo sapiens, UniProt P27338); assay: Monoamine oxidase assay, kynuramine fluorescence, MAO-B; conditions: Ki (IC50) determined at Vmax/2; range class
T1 construct: purchased Sigma Aldrich
T1 sequence (P27338 1-520): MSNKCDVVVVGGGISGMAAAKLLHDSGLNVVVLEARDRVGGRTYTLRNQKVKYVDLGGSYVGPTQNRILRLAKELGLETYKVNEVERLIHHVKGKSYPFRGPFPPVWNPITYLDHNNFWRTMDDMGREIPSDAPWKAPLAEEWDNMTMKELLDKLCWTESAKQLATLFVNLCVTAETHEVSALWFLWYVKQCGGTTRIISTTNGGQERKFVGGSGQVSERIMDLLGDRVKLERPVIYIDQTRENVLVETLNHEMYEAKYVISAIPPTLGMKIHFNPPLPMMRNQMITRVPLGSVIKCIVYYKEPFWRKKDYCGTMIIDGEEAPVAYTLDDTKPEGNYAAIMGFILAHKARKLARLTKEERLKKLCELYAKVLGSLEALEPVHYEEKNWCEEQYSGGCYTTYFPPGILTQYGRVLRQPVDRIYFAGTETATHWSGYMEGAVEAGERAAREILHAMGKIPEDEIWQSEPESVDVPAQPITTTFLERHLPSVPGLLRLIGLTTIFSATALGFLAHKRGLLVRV
Description: (§1) Human recombinant monoamine oxidase proteins MAO-A and MAO-B were purchased from Sigma Aldrich. MAOs catalyze the oxidative deamination of primary, secondary and tertiary amines. In order to monitor MAO enzymatic activities and/or their inhibition rate by inhibitor(s) of interest, a fluorescence-based (inhibitor)-screening assay was set up. 3-(2-Aminophenyl)-3-oxopropanamine (kynuramine dihydrobromide, Sigma Aldrich), a non fluorescent compound was chosen as a substrate. Kynuramine is a non-specific substrate for both MAO-A and MAO-B activities. While undergoing oxidative deamination by MAO activities, kynuramine is converted into 4-hydroxyquinoline (4-HQ), a resulting fluorescent product.
(§2) The monoamine oxidase activity was estimated by measuring the conversion of kynuramine into 4-hydroxyquinoline. Assays were conducted in 96-well black plates with clear bottom (Corning) in a final volume of 100 μL. The assay buffer was 100 mM HEPES, pH 7.5. Each experiment was performed in triplicate within the same experiment.
(§3) Briefly, a fixed amount of MAO (0.25 μg for MAO-A and 0.5 μg for MAO-B) was incubated on ice for 15 minutes in the reaction buffer, in the absence and/or in the presence of various concentrations of inhibitor (e.g., from 0 to 50 μM, depending on the inhibitor strength). Tranylcypromine (Biomol International) was used as a control for inhibition.
(§4) After leaving the enzyme(s) interacting with the inhibitor, 60 to 90 μM of kynuramine was added to each reaction for MAO-B and MAO-A assay respectively, and the reaction was left for 1 hour at 37° C. in the dark. The oxidative deamination of the substrate was stopped by adding 50 μL (v/v) of NaOH 2N. The conversion of kynuramine to 4-hydroxyquinoline, was monitored by fluorescence (excitation at 320 nm, emission at 360 nm) using a microplate reader (Infinite 200, Tecan). Arbitrary units were used to measure levels of fluorescence produced in the absence and/or in the presence of inhibitor.
(§5) The maximum of oxidative deamination activity was obtained by measuring the amount of 4-hydroxyquinoline formed from kynuramine deamination in the absence of inhibitor and corrected for background fluorescence in the absence of MAO enzymes. The Ki (IC50) of each inhibitor was determined at Vmax/2.

[2] = target: T2, Human recombinant LSD1 protein (Homo sapiens, UniProt O60341); assay: Inhibition of LSD1 (Amplex Red peroxide/peroxidase-coupled demethylase assay, di-methylated H3-K4 peptide substrate); conditions: Ki (IC50) estimated at half of the maximum activity; range class
T2 construct: purchased BPS Bioscience Inc
Description: The compounds of the invention can be tested for their ability to inhibit LSD1. The ability of the compounds of the invention to inhibit LSD1 can be tested as follows. Human recombinant LSD1 protein was purchased from BPS Bioscience Inc. In order to monitor LSD1 enzymatic activity and/or its inhibition rate by our inhibitor(s) of interest, di-methylated H3-K4 peptide (Millipore) was chosen as a substrate. The demethylase activity was estimated, under aerobic conditions, by measuring the release of H2O2 produced during the catalytic process, using the Amplex® Red peroxide/peroxidase-coupled assay kit (Invitrogen).
Briefly, a fixed amount of LSD1 was incubated on ice for 15 minutes, in the absence and/or in the presence of various concentrations of inhibitor (e.g., from 0 to 75 μM, depending on the inhibitor strength). Tranylcypromine (Biomol International) was used as a control for inhibition. Within the experiment, each concentration of inhibitor was tested in triplicate. After leaving the enzyme interacting with the inhibitor, 12.5 μM of di-methylated H3-K4 peptide was added to each reaction and the experiment was left for 1 hour at 37° C. in the dark. The enzymatic reactions were set up in a 50 mM sodium phosphate, pH 7.4 buffer. At the end of the incubation, Amplex® Red reagent and horseradish peroxidase (HPR) solution were added to the reaction according to the recommendations provided by the supplier (Invitrogen), and left to incubate for 30 extra minutes at room temperature in the dark. A 1 μM H2O2 solution was used as a control of the kit efficiency. The conversion of the Amplex® Red reagent to resorufin due to the presence of H2O2 in the assay, was monitored by fluorescence (excitation at 540 nm, emission at 590 nm) using a microplate reader (Infinite 200, Tecan). Arbitrary units were used to measure level of H2O2 produced in the absence and/or in the presence of inhibitor.
The maximum demethylase activity of LSD1 was obtained in the absence of inhibitor and corrected for background fluorescence in the absence of LSD1. The Ki (IC50) of each inhibitor was estimated at half of the maximum activity.

[3] = target: T3, Human recombinant monoamine oxidase MAO-A (Homo sapiens, UniProt P21397); assay: Monoamine oxidase assay, kynuramine fluorescence, MAO-A; conditions: Ki (IC50) determined at Vmax/2; range class
T3 construct: purchased Sigma Aldrich
T3 sequence (P21397 1-527): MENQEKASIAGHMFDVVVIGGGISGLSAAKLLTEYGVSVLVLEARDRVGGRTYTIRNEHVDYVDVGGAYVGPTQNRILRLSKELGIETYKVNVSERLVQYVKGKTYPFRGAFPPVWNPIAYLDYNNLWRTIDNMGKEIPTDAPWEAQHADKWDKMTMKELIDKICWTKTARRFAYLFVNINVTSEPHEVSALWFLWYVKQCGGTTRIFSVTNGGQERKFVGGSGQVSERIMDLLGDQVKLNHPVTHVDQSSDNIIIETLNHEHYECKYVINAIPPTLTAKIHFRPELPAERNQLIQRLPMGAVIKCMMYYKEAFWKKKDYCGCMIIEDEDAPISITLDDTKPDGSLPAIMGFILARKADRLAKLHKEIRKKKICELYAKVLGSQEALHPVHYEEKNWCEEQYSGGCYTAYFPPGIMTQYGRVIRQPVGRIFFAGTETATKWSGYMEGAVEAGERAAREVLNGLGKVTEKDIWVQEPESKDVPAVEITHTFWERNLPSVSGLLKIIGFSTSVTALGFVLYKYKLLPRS
Description: as §1, §2, §3, §4, §5

Ki [1] [nM]	Ki [2] [nM]	Ki [3] [µM]	SMILES
1000 to 40000	100 to 1000	1 to 40	NC(=O)c1cccc(Nc2ccc([C@H]3C[C@@H]3N)cn2)c1 (racemic) [Example 10, 3-(5-((trans)-2-aminocyclopropyl)pyridin-2-ylamino)benzamide hydrochloride]
100 to 1000	100 to 1000	1 to 40	N[C@H]1C[C@@H]1c1ccc(Nc2ccc(C(F)(F)F)cc2)nc1 (racemic) [Example 3, 5-((trans)-2-aminocyclopropyl)-N-(4-(trifluoromethyl)phenyl)pyridin-2-amine hydrochloride]
100 to 1000	100 to 1000	1 to 40	Cc1cccc(Nc2ccc([C@H]3C[C@@H]3N)cn2)c1 (racemic) [Example 7, 5-((trans)-2-aminocyclopropyl)-N-m-tolylpyridin-2-amine hydrochloride]
1000 to 40000	100 to 1000	1 to 40	Cc1ccc(CNc2ccc([C@H]3C[C@@H]3N)cn2)cc1 (racemic) [Example 17, 5-((trans)-2-aminocyclopropyl)-N-(4-methylbenzyl)pyridin-2-amine hydrochloride]
1000 to 40000	100 to 1000	1 to 40	N#Cc1cccc(CNc2ccc([C@H]3C[C@@H]3N)cn2)c1 (racemic) [Example 18, 3-((5-((trans)-2-aminocyclopropyl)pyridin-2-ylamino)methyl)benzonitrile hydrochloride]
1 to 100	100 to 1000	1 to 40	N[C@H]1C[C@@H]1c1ccc(Nc2ccc(Cl)cc2)nc1 (racemic) [Example 2, 5-((trans)-2-aminocyclopropyl)-N-(4-chlorophenyl)pyridin-2-amine hydrochloride]
1000 to 40000	100 to 1000	1 to 40	N[C@H]1C[C@@H]1c1ccc(NCc2ccc(C(F)(F)F)cc2)nc1 (racemic) [Example 15, 5-((trans)-2-aminocyclopropyl)-N-(4-(trifluoromethyl)benzyl)pyridin-2-amine hydrochloride]
1000 to 40000	100 to 1000	1 to 40	Cc1ccc(Nc2ccc([C@H]3C[C@@H]3N)cn2)cc1 (racemic) [Example 6, 5-((trans)-2-aminocyclopropyl)-N-p-tolylpyridin-2-amine hydrochloride]
1000 to 40000	100 to 1000	1 to 40	COc1cccc(Nc2ccc([C@H]3C[C@@H]3N)cn2)c1 (racemic) [Example 4, 5-((trans)-2-aminocyclopropyl)-N-(3-methoxyphenyl)pyridin-2-amine hydrochloride]
1000 to 40000	100 to 1000	1 to 40	N[C@H]1C[C@@H]1c1ccc(NCc2cccc(Cl)c2)nc1 (racemic) [Example 12, 5-((trans)-2-aminocyclopropyl)-N-(3-chlorobenzyl)pyridin-2-amine hydrochloride]
100 to 1000	100 to 1000	1 to 40	COc1ccc(Nc2ccc([C@H]3C[C@@H]3N)cn2)cc1 (racemic) [Example 5, 5-((trans)-2-aminocyclopropyl)-N-(4-methoxyphenyl)pyridin-2-amine hydrochloride]
1 to 100	100 to 1000	1 to 40	N[C@H]1C[C@@H]1c1ccc(Nc2cccc(Cl)c2)nc1 (racemic) [Example 1, 5-((trans)-2-aminocyclopropyl)-N-(3-chlorophenyl)pyridin-2-amine hydrochloride]
1000 to 40000	100 to 1000	1 to 40	Cc1cccc(CNc2ccc([C@H]3C[C@@H]3N)cn2)c1 (racemic) [Example 16, 5-((trans)-2-aminocyclopropyl)-N-(3-methylbenzyl)pyridin-2-amine hydrochloride]
100 to 1000	100 to 1000	1 to 40	N#Cc1cccc(Nc2ccc([C@H]3C[C@@H]3N)cn2)c1 (racemic) [Example 9, 3-(5-((trans)-2-aminocyclopropyl)pyridin-2-ylamino)benzonitrile hydrochloride]
